The values that follow come from PubChem BioAssay (NCI).

“And” between values parts separate entries of the source, which are not always exact repeats. Equal values may be shown once.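 Following 48 hours of exposure in 96-well plates, responses at five concentrations were used to interpolate endpoints linearly. GI50: concentration for 50% inhibition of growth. Definition used: TGI = concentration required for complete inhibition of growth.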

Among the test systems are A498 renal; BT-549 breast; HL-60(TB) leukemia; MDA-MB-231 breast; NCI-H226 lung; NCI-H460 lung; NCI-H522 lung; NCI/ADR-RES ovarian; OVCAR-3 ovarian; T-47D breast.
Holding throughout (test): inhibition of tumour cell growth, NCI panel, 48 h

For `COCCN1CCN(Cc2ccc(-c3n[nH]c4c3C(=O)c3c(NC(=O)NN5CCOCC5)cccc3-4)cc2)CC1`, the GI50 with A498 renal is 0.0292 µM; in the assay with BT-549 breast, 0.0308 µM; in the assay on HL-60(TB) leukemia it was 0.00888 µM; with MDA-MB-231 breast it was 0.0194 µM; in the assay with NCI-H226 lung, 0.0329 µM; with NCI-H460 lung it was 0.0274 µM. The GI50 with NCI-H522 lung is 0.0194 µM; in the assay with NCI/ADR-RES ovarian it was 0.713 µM; in the assay with OVCAR-3 ovarian, 0.0242 µM; in the assay on T-47D breast it was 0.0216 µM. For the same molecule, the TGI in the assay with A498 renal is 0.141 µM; in the assay on BT-549 breast, 0.209 µM; in the assay on HL-60(TB) leukemia, 0.0453 µM; with MDA-MB-231 breast, 0.584 µM; with NCI-H226 lung it was more than 2.46 µM; in the assay on NCI-H460 lung, 0.623 µM. Besides, the TGI in the assay on NCI-H522 lung was 0.0736 µM; with NCI/ADR-RES ovarian, more than 10 µM.

Turning to `Oc1ccc(CCNCc2cc3c(cc2Br)OCO3)cc1`, the TGI was more than 100 µM in the assay on A498 renal; more than 100 µM in the assay on BT-549 breast; 84.4 µM in the assay with HL-60(TB) leukemia; more than 100 µM in the assay on MDA-MB-231 breast; more than 100 µM in the assay with NCI-H226 lung; more than 100 µM in the assay on NCI-H460 lung. Besides, the TGI in the assay with NCI-H522 lung, with NCI/ADR-RES ovarian, with OVCAR-3 ovarian and in the assay on T-47D breast was more than 100 µM each time.

Take `O=C1Nc2ccccc2/C1=C\c1nc(C2CCN(S(=O)(=O)c3ccc(F)cc3)CC2)n2ccccc12`: the GI50 is 17.1 µM in the assay with A498 renal; 1.85 µM in the assay with BT-549 breast; more than 100 µM in the assay on HL-60(TB) leukemia; 2.9 µM with MDA-MB-231 breast; 2.32 µM in the assay on NCI-H226 lung; 9.97 µM with NCI-H460 lung. Moreover, the GI50 was 1.94 µM in the assay with NCI-H522 lung, 3.43 µM in the assay with NCI/ADR-RES ovarian, 2.72 µM in the assay on OVCAR-3 ovarian and 4.57 µM in the assay with T-47D breast. Besides, the TGI was more than 100 µM in the assay with A498 renal; 8.48 µM in the assay with BT-549 breast; more than 100 µM in the assay with HL-60(TB) leukemia; 60.8 µM in the assay on MDA-MB-231 breast; 21.1 µM in the assay with NCI-H226 lung; more than 100 µM in the assay on NCI-H460 lung. The TGI in the assay on NCI-H522 lung was 12 µM; in the assay with NCI/ADR-RES ovarian it was more than 100 µM; with OVCAR-3 ovarian it was 11.1 µM; in the assay with T-47D breast, more than 100 µM.

Regarding `NC(N)=Nc1nc2ccc([N+](=O)[O-])cc2[nH]1`, the TGI in the assay with A498 renal, with BT-549 breast, with HL-60(TB) leukemia, in the assay on MDA-MB-231 breast, with NCI-H226 lung and in the assay on NCI-H460 lung was more than 100 µM throughout. Besides, the TGI with NCI-H522 lung, with NCI/ADR-RES ovarian, with OVCAR-3 ovarian and with T-47D breast was more than 100 µM throughout.

As for `Cc1ccc(C(SCC(N)C(=O)O)(c2ccccc2)c2ccccc2)cc1` (configuration not stated), the GI50 with A498 renal is 1.02 µM; with BT-549 breast it was 0.145 µM; with HL-60(TB) leukemia it was 0.0878 µM; in the assay with MDA-MB-231 breast, 0.0381 µM; in the assay on NCI-H226 lung, 9.29 µM; with NCI-H460 lung, 0.0718 µM. Further, the GI50 is 0.0403 µM in the assay with NCI-H522 lung, 1.03 µM in the assay with NCI/ADR-RES ovarian, 0.0391 µM in the assay on OVCAR-3 ovarian and 0.123 µM in the assay on T-47D breast. The TGI in the assay with A498 renal was more than 64.7 µM; in the assay with BT-549 breast it was more than 69.7 µM; with MDA-MB-231 breast, 0.571 µM; with NCI-H226 lung it was 42.9 µM; in the assay on NCI-H460 lung, 14.8 µM; in the assay on NCI-H522 lung, 85.1 µM. Moreover, the TGI in the assay on NCI/ADR-RES ovarian was 6.03 µM; in the assay on OVCAR-3 ovarian it was 0.158 µM; in the assay on T-47D breast, more than 77.7 µM.

Take `CC(C)CC(Nc1c(O)ccc2ccccc12)C(=O)O` (configuration not stated): the TGI in the assay on A498 renal was 67.3 µM; in the assay on BT-549 breast, 83.6 µM; with HL-60(TB) leukemia it was more than 100 µM; in the assay on MDA-MB-231 breast it was more than 100 µM; in the assay with NCI-H226 lung, 62.1 µM; with NCI-H460 lung, more than 100 µM. For the same molecule, the TGI was more than 100 µM in the assay with NCI-H522 lung, more than 100 µM in the assay on NCI/ADR-RES ovarian, 62.1 µM with OVCAR-3 ovarian and more than 100 µM in the assay on T-47D breast.

Consider `CCCCC(=O)N/N=C/c1c(O)ccc2ccccc12`, for which the GI50 in the assay with A498 renal was 7.71 µM; in the assay with BT-549 breast it was 0.537 µM; in the assay with HL-60(TB) leukemia it was 0.452 µM; in the assay on MDA-MB-231 breast, 3.51 µM; in the assay with NCI-H226 lung, 13.7 µM; with NCI-H460 lung it was 1.36 µM. Besides, the GI50 in the assay on NCI-H522 lung is 1.77 µM; in the assay with NCI/ADR-RES ovarian, 1.68 µM; with OVCAR-3 ovarian it was 0.423 µM; in the assay with T-47D breast, 3.03 µM. For the same molecule, the TGI is 44.4 µM in the assay with A498 renal; 6.6 µM in the assay on BT-549 breast; more than 94.8 µM in the assay on MDA-MB-231 breast; more than 70.4 µM with NCI-H226 lung; more than 100 µM with NCI-H460 lung; 10.2 µM in the assay with NCI-H522 lung. For the same molecule, the TGI is more than 30.2 µM with NCI/ADR-RES ovarian, 9.37 µM with OVCAR-3 ovarian and more than 100 µM in the assay on T-47D breast.

For `Cc1cc(C(=O)NC(CCC(=O)O)C(=O)O)sc1CCC1CNc2nc(N)[nH]c(=O)c2C1` (configuration not stated), the GI50 in the assay on A498 renal is 0.199 µM and 0.0945 µM; with BT-549 breast it was 0.37 µM and 2.39 µM; in the assay on HL-60(TB) leukemia, 0.0366 µM and 0.0558 µM; with MDA-MB-231 breast, 6.72 µM and 12.8 µM; in the assay with NCI-H226 lung, less than 0.0128 µM; with NCI-H460 lung, < 0.0186 µM and 0.0404 µM. Moreover, the GI50 in the assay with NCI-H522 lung was < 0.0226 µM and 0.0546 µM; with NCI/ADR-RES ovarian it was 0.0499 µM and 0.0758 µM; with OVCAR-3 ovarian, 0.0523 µM and 0.487 µM. Besides, the TGI in the assay with A498 renal, in the assay on BT-549 breast, in the assay with HL-60(TB) leukemia, in the assay on MDA-MB-231 breast, with NCI-H226 lung and in the assay with NCI-H460 lung was more than 100 µM throughout. Further, the TGI in the assay on NCI-H522 lung, with NCI/ADR-RES ovarian, with OVCAR-3 ovarian and in the assay on T-47D breast was more than 100 µM throughout.

Turning to `O=S1(=O)CS(=O)(=O)OCCO1`, the TGI is 154 µM with A498 renal; 156 µM with BT-549 breast; 93.1 µM and 61.8 µM with HL-60(TB) leukemia; 352 µM with MDA-MB-231 breast; 172 µM in the assay on NCI-H226 lung; 69.9 µM with NCI-H460 lung. Also, the TGI was 140 µM in the assay with NCI-H522 lung; 89.6 µM and 270 µM in the assay on NCI/ADR-RES ovarian; 87.5 µM with OVCAR-3 ovarian; 557 µM in the assay on T-47D breast. The GI50 in the assay on BT-549 breast is 69.2 µM; in the assay on HL-60(TB) leukemia, 23.9 µM; with NCI-H226 lung, more than 93.7 µM; with NCI-H460 lung it was 18.1 µM; in the assay on NCI-H522 lung, more than 96.4 µM; in the assay on NCI/ADR-RES ovarian, 25.7 µM. In the assay on T-47D breast, the GI50 was 87.6 µM.
